Test results from the supplement of paper PMC10307832.

What follows are cell lines tested with CC1=NN=C(O1)C2=NN=C(C=C2)N3CCC(CC3)OC4=C(C=CC(=C4)F)Cl + C[C@@H](Oc1cc(-c2cnn(C3CCNCC3)c2)cnc1N)c1c(Cl)ccc(F)c1Cl [Crizotinib] (partner 1 µM) (assay: relative viability (nuclei count vs DMSO), 5 days (fraction); higher = more cells survive). Settings: first compound 0.253 µM.
Procedure, shortened: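 Medians of duplicate plates are given as relative viability. That measure is the nuclei count in treated wells divided by the count in vehicle wells. Counts were taken on 4× images of lung cancer cell lines in 1536-well plates, 5 days after pin-tool dosing the day after seeding with one drug alone or a fixed anchor-drug dose plus five library-drug doses (not always all listed) in √10 steps.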

Cell Line | relative viability
SK-LU-1 | 0.895
NCI-H1703 | 0.728
EBC-1 | 0.216
NCI-H1792 | 0.414
NCI-H2087 | 0.652
SW 1573 | 0.777
LCLC-103H | 0.819
NCI-H727 | 0.725
NCI-H2405 | 0.503
EMC-BAC-2 | 0.583
NCI-H23 | 0.6
Calu-6 | 0.485
HCC-366 | 0.289
NCI-H1755 | 0.578
NCI-H838 | 0.643
LK-2 | 0.216
NCI-H2347 | 0.734

Cell Line | relative viability
SK-MES-1 | 0.773
H3255 | 0.548
COR-L23 | 0.527
COR-L 105 | 0.689
IA-LM | 0.415
LU99A | 0.571
ChaGo-K-1 | 0.76
NCI-H2170 | 0.553
NCI-H460 | 0.359
A549 | 0.461
NCI-H1299 | 0.785
CAL-12T | 0.552
NCI-H1563 | 0.861
NCI-H2228 | 0.357
NCI-H1944 | 0.448
ABC-1 | 0.686
NCI-H358 | 0.522

Same assay, conditions: first compound 0.8 µM

Cell Line | relative viability
SK-LU-1 | 0.732
NCI-H1703 | 0.661
EBC-1 | 0.171
NCI-H1792 | 0.447
NCI-H2087 | 0.598
NCI-H596 | 0.95
SW 1573 | 0.827
LCLC-103H | 0.746
NCI-H727 | 0.901
NCI-H2405 | 0.428
EMC-BAC-2 | 0.648
Calu-6 | 0.469
HCC-366 | 0.284
NCI-H1755 | 0.576
NCI-H838 | 0.679
LK-2 | 0.246
NCI-H2347 | 0.522

Cell Line | relative viability
SK-MES-1 | 0.807
H3255 | 0.646
COR-L23 | 0.586
COR-L 105 | 0.907
IA-LM | 0.266
LU99A | 0.604
ChaGo-K-1 | 0.669
NCI-H2170 | 0.573
NCI-H460 | 0.301
A549 | 0.383
NCI-H1299 | 0.711
CAL-12T | 0.602
NCI-H1563 | 0.858
NCI-H2228 | 0.408
NCI-H1944 | 0.54
ABC-1 | 0.615
NCI-H358 | 0.403

Same assay, conditions: first compound 2.53 µM

Cell Line | relative viability
SK-LU-1 | 0.826
NCI-H1703 | 0.764
EBC-1 | 0.179
NCI-H1792 | 0.378
NCI-H2087 | 0.544
NCI-H596 | 0.963
NCI-H1355 | 0.985
SW 1573 | 0.795
LCLC-103H | 0.723
NCI-H727 | 0.672
